Experimental findings from the NIST ThermoML archive (doi:10.1016/j.fluid.2013.10.060) are described below.

Each structure is given as a SMILES string. Numbers after ± are expanded uncertainties.

The conditions of data set [1]: for mass density: 298.15 K, 101.33 kPa, Liquid, Vibrating tube method; for surface tension liquid-gas: 303.15 K, Maximal bubble pressure.
A short description of data set [2]: refractive index (Na D-line) (dimensionless). The following applies: 298.15 K; 101.33 kPa; Liquid; Standard Abbe refractometry.
Data set [3] is described as follows: Boiling temperature at pressure P. The following applies: 101.33 kPa; Liquid; Ebulliometric method (Recirculating still).

With `CCO` [ethanol], in data set [1], the mass density is 785.09 ± 0.15 kg/m3 and the surface tension liquid-gas is listed as 21.7 ± 0.18 mN/m. Further, the refractive index in data set [2] stood at 1.36068 ± 0.00031. Moreover, the “Boiling temperature at pressure P” value in data set [3] came out at 78.30 ± 0.02 °C.
Take `CCCCCC` [hexane]: in data set [1], the mass density worked out at 655.19 ± 0.18 kg/m3 and the surface tension liquid-gas was found to be 17.4 ± 0.16 mN/m. For the same compound, in data set [2], the refractive index is 1.37374 ± 0.00031.
Turning to `C1CCOCC1` [tetrahydropyran], in data set [1], the mass density came out at 879.03 ± 0.13 kg/m3 and the surface tension liquid-gas is reported as 27.1 ± 0.2 mN/m. Moreover, the refractive index in data set [2] is given as 1.42 ± 0.00031. The “Boiling temperature at pressure P” value in data set [3] came out at 88.21 ± 0.02 °C.

What is called mass density is mass per unit of volume. One may read the surface tension liquid-gas as the work needed to enlarge the surface of a liquid by unit area. What is called refractive index is the speed of light in vacuum divided by its phase velocity in the sample.
